Measured values taken from patent US20240082228A1, “SARS-COV-2 THERAPEUTICS” (priority 2021, published 2024).
Where “and” joins values, the source holds several entries; their conditions need not be identical. Equal values may be shown once. Read-outs that look alike come from different tables or passages of the source.

Tests used:
SARS-CoV-2 = assay: microbe, parasite or virus in culture; type: cell-based; conditions: for activity at 1 µM: Severe acute respiratory syndrome coronavirus 2, 1 uM, read-out: Normalized Infection (1 uM); for activity at 5 µM: Severe acute respiratory syndrome coronavirus 2, 5 uM, read-out: Normalized Infection (5 uM); for HIT: overall, 1 or 5 uM
[1] = for Average Cell Number (1 uM) / Normalized Cell Number (1 uM) / Cell Number (1 uM): compound at 1 uM; for Average Cell Number (1 uM) / Average Cell Number (5 uM): average of normalized cell number, n=3, relative to DMSO; for Normalized Cell Number (1 uM) / Normalized Cell Number (5 uM) / Cell Number (1 uM) / Cell Number (5 uM): single replicate; for Normalized Cell Number (1 uM) / Normalized Cell Number (5 uM): relative to negative control DMSO; for Average Cell Number (5 uM) / Normalized Cell Number (5 uM) / Cell Number (5 uM): compound at 5 uM; for Cell Number (1 uM) / Cell Number (5 uM): raw cell count
[2] = 1 uM, average log2FC infection (n=3) relative to DMSO
[3] = 5 uM, average log2FC infection (n=3) relative to DMSO
[4] = single replicate, relative to negative control DMSO
[5] = 1 uM, single replicate, relative to negative control DMSO
[6] = 5 uM, single replicate, relative to negative control DMSO

Compound | HIT (2 Std, 1 uM) (SARS-CoV-2; 1 uM) | Average Infection (1 uM) (SARS-CoV-2; [2]) | Average Infection (5 uM) (SARS-CoV-2; [3]) | activity at 1 µM (SARS-CoV-2; [4]) | activity at 5 µM (SARS-CoV-2; [4]) | HIT (SARS-CoV-2) | Average Cell Number (1 uM) [1] | Normalized Cell Number (1 uM) [1] | Average Cell Number (5 uM) [1] | Normalized Cell Number (5 uM) [1] | HIT (2 Stdv, 5 uM) (SARS-CoV-2; 5 uM) | Toxic (1 uM) [1] | Toxic (5 uM) [1] | Cell Number (1 uM) [1] | Cell Number (5 uM) [1] | other results
CCCCC[C@H](O)/C=C/[C@@H]1[C@@H](C/C=C\CCCC(=O)O)[C@@H](O)C[C@H]1O [Prostagladin F2a, dinoprost] | HIT | −0.6806 | −0.2282 | 58.9% | 83.1% | Yes | 0.8973 | 0.8613 and 0.9247 and 0.906 | 0.9858 | 0.988 and 0.9765 and 0.9929 | – | – | – | – | – | –
CC(C)N1CCN(Cc2cnc(-c3cc(-c4cccc5[nH]ccc45)cc4[nH]ncc34)o2)CC1 [GSK2269557, nemiralisib] | HIT | – | – | – | – | Yes | 0.8919 | 0.8244 and 0.9667 and 0.8846 | 0.7914 | 0.7708 and 0.6465 and 0.9569 | HIT | 0 (non-toxic (Normalized Cell number>0.65) | 0 (non-toxic (Normalized Cell number>0.65) | 4831 and 5665 and 5184 | 4568 and 3831 and 5671 | Average Infection (1 uM) (SARS-CoV-2): −0.7144; Average Infection (5 uM) (SARS-CoV-2): −3.347; % Infection (1 uM) (SARS-CoV-2; 1 uM, single replicate of triplicate): 17.26% and 15.32% and 15.51%; Normalized Infection (1 uM) (SARS-CoV-2; [5]): 0.6572 and 0.5833 and 0.5904; log2FC Infection (1 uM) (SARS-CoV-2; [5]): −0.6055 and −0.7776 and −0.7601; % Infection (5 uM) (SARS-CoV-2; 5 uM, single replicate of triplicate): 1.292% and 0.4698% and 5.713%; Normalized Infection (5 uM) (SARS-CoV-2; [6]): 0.08388 and 0.03051 and 0.371; log2FC Infection (5 uM) (SARS-CoV-2; [6]): −3.575 and −5.034 and −1.43
C#C[C@]1(O)CC[C@H]2[C@@H]3CCC4=CCCC[C@@H]4[C@H]3C(=C)C[C@@]21CC [Desogestrel, desogestrel] | HIT | −0.4489 | −0.1002 | 80.9% | 87% | Yes | 0.8768 | 0.8756 and 0.8894 and 0.8655 | 0.9255 | 0.9632 and 0.9828 and 0.8305 | – | 0 (non-toxic (Normalized Cell number>0.65) | 0 (non-toxic (Normalized Cell number>0.65) | 5131 and 5212 and 5072 | 5708 and 5824 and 4922 | –
CN(C)[C@@H]1C(O)=C(C(N)=O)C(=O)[C@@]2(O)C(O)=C3C(=O)c4c(O)cccc4[C@@](C)(O)[C@H]3[C@H](O)[C@@H]12 [Oxytetracycline, oxytetracycline] | HIT | −0.4729 | −0.1642 | 83.8% | – | Yes | 0.8352 | 0.8585 and 0.8273 and 0.8196 | 0.976 | 1.015 and 0.9733 and 0.9399 | – | 0 (non-toxic (Normalized Cell number>0.65) | 0 (non-toxic (Normalized Cell number>0.65) | 5031 and 4848 and 4803 | 6014 and 5768 and 5570 | –
Nc1cc(C(F)(F)F)c(-c2nc(N3CCOCC3)nc(N3CCOCC3)n2)cn1 [Bimiralisib, bimiralisib] | HIT | −1.45 | −4.123 | – | 5.11% | Yes | 0.6927 | 0.6551 and 0.7517 and 0.6713 | 0.4637 | 0.4716 and 0.471 and 0.4485 | HIT | 0 (non-toxic (Normalized Cell number>0.65) | – | 3839 and 4405 and 3934 | 2795 and 2791 and 2658 | –
COc1nc2ccc(Br)cc2cc1[C@@H](c1ccccc1)[C@@](O)(CCN(C)C)c1cccc2ccccc12 [TMC207, bedaquiline] | HIT | −0.3556 | −0.559 | 72.7% | 65.9% | Yes | 0.6048 | 0.5913 and 0.5985 and 0.6247 | 0.8191 | 0.8619 and 0.7641 and 0.8314 | HIT | – | 0 (non-toxic (Normalized Cell number>0.65) | 3465 and 3507 and 3661 | 5108 and 4528 and 4927 | –
O=C(O)Cn1nnc(-c2cc(N3CCC(Oc4cc(F)ccc4Br)CC3)no2)n1 [MK-8245, mk-8245] | HIT | 0.7764 | −0.05739 | – | – | Yes | 0.7263 | – | 0.9401 | 0.9807 and 0.8255 and 1.014 | – | 0 (non-toxic (Normalized Cell number>0.65) | 0 (non-toxic (Normalized Cell number>0.65) | – | 5812 and 4892 and 6009 | –
c1cc(OCCN2CCCCC2)cc(-c2n[nH]c3ccc(-c4nc[nH]n4)cc23)c1 [CC-401, cc-401] | – | −0.3224 | −0.828 | 86.2% | 58.4% | Yes | 0.8485 | 0.8005 and 0.8807 and 0.8643 | 0.8935 | 0.8425 and 0.9303 and 0.9078 | HIT | 0 (non-toxic (Normalized Cell number>0.65) | 0 (non-toxic (Normalized Cell number>0.65) | 4691 and 5161 and 5065 | 4993 and 5513 and 5380 | –
CC1(C)S[C@@H]2[C@H](/N=C/N3CCCCCC3)C(=O)N2[C@H]1C(=O)O [Mecillinam, mecillinam] | HIT | −3.47 | −0.06608 | – | 104% | Yes | 1.097 | 1.047 and 1.143 and 1.101 | 0.9928 | 1.027 and 0.9711 and 0.9801 | – | 0 (non-toxic (Normalized Cell number>0.65) | 0 (non-toxic (Normalized Cell number>0.65) | 6136 and 6699 and 6450 | 6088 and 5755 and 5808 | –
O=C(O)CNC(=O)C1C(=O)N(C2CCCCC2)C(=O)N(C2CCCCC2)C1=O [Daprodustat, daprodustat] | HIT | – | – | 57.7% | – | Yes | 0.7431 | 0.7324 and 0.7529 and 0.744 | 0.9695 | 1.006 and 0.9569 and 0.9451 | – | 0 (non-toxic (Normalized Cell number>0.65) | 0 (non-toxic (Normalized Cell number>0.65) | 4292 and 4412 and 4360 | 5964 and 5671 and 5601 | Average Infection (1 uM) (SARS-CoV-2): −0.8526; Average Infection (5 uM) (SARS-CoV-2): −0.09093
